Source: US11439641B2, “Pyrimidine JAK inhibitors for the treatment of skin diseases” (THERAVANCE BIOPHARMA R&D IP, LLC, priority 2019, dated 2022)

Tests used:
Aqueous Solubility Assay = details: PBS buffer pH 7.4; maximum upper limit 1,000 μM
Method: Assay 5: Aqueous Solubility Assay
The purpose of this assay was to quantify the solubility of test compounds in pH 4 and pH 7.4 PBS buffers. The assay required 40 μL of 10 mM DMSO test compound solution per desired buffer in addition to 20 μL required to make a test standard. For example, to test a compound in both buffers, 100 μL (2*40 μL+20 μL) of 10 mM DMSO compound stock solution was required.
The standard was created by diluting 20 μL of 10 mM DMSO compound stock solution into 180 μL of methanol and was shaken for five minutes to ensure solution uniformity. […] This 1,000 μM solution was run on an Agilent 1260 LC-MS system by injecting 2 μL in order to obtain the peak area. For the test solutions, 40 μL of 10 mM DMSO compound stock solution, per PBS buffer condition, were dried down into a powder overnight. Once in powder form, 400 μL of the desired PBS buffer was added to the powder and allowed to shake vigorously for four hours. The maximum theoretical concentration for this sample solution was 1,000 μM. After four hours of shaking, the samples were centrifuged for 10 minutes at 3,000 RPM before injecting 2 μL on the same Agilent 1260 LC-MS system to obtain the peak area.
In Table 6 below, A represents a value above 500, B represents a value between 250 and 500, C represents a value between 50 and 250, D represents a value between 10 and 50, and E represents a value below 10.

JAK3 = JAK3 (Homo sapiens (Human), UniProt P52333); experiment: Biochemical JAK and Tyk2 Kinase Assays (LanthaScreen), JAK3; details: 1.6 μM ATP (Km); pIC50 converted to pKi by Cheng-Prusoff
Method: (§1) Assay 1: Biochemical JAK and Tyk2 Kinase Assays
(§2) A panel of four LanthaScreen JAK biochemical assays (JAK1, 2, 3 and Tyk2) were carried in a common kinase reaction buffer (50 mM HEPES, pH 7.5, 0.01% Brij-35, 10 mM MgCl2, and 1 mM EGTA). Recombinant GST-tagged JAK enzymes and a GFP-tagged STAT1 peptide substrate were obtained from Life Technologies.
(§3) Serially or discretely diluted compounds were pre-incubated with each of the four JAK enzymes and the substrate in white 384-well microplates (Corning) at ambient temperature for 1 h. ATP was subsequently added to initiate the kinase reactions in 10 μL total volume, with 1% DMSO. The final enzyme concentrations for JAK1, 2, 3 and Tyk2 are 4.2 nM, 0.1 nM, 1 nM, and 0.25 nM respectively; the corresponding Km ATP concentrations used are 25 μM, 3 μM, 1.6 μM, and 10 μM; while the substrate concentration is 200 nM for all four assays. Kinase reactions were allowed to proceed for 1 hour at ambient temperature before a 10 μL preparation of EDTA (10 mM final concentration) and Tb-anti-pSTAT1 (pTyr701) antibody (Life Technologies, 2 nM final concentration) in TR-FRET dilution buffer (Life Technologies) was added. The plates were allowed to incubate at ambient temperature for 1 h before being read on the EnVision reader (Perkin Elmer). Emission ratio signals (520 nm/495 nm) were recorded and utilized to calculate the percent inhibition values based on DMSO and background controls.
(§4) For dose-response analysis, percent inhibition data were plotted vs. compound concentrations, and IC50 values were determined from a 4-parameter robust fit model with the Prism software (GraphPad Software). Results were expressed as pIC50 (negative logarithm of IC50) and subsequently converted to pKi (negative logarithm of dissociation constant, Ki) using the Cheng-Prusoff equation.

[1] = system: IL-2 stimulated pSTAT5 in Tall-1 T cells; experiment: Inhibition of IL-2 Stimulated pSTAT5 in Tall-1 T Cells; assay type: cell-based; details: Tall-1 human T cell line, IL-2 300 ng/mL, AlphaLisa
Method: Assay 2: Inhibition of IL-2 Stimulated pSTAT5 in Tall-1 T Cells
The potency of test compounds for inhibition of interleukin-2 (IL-2) stimulated STATS phosphorylation was measured in the Tall-1 human T cell line (DSMZ) using AlphaLisa. Because IL-2 signals through JAK1/3, this assay provides a measure of JAK1/3 cellular potency.
Phosphorylated STATS was measured via the AlphaLISA SureFire Ultra pSTAT5 (Tyr694/699) kit (PerkinElmer). Human T cells from the Tall-1 cell line were cultured in a 37° C., 5% CO2 humidified incubator in RPMI (Life Technologies) supplemented with 15% Heat Inactivated Fetal Bovine Serum (FBS, Life Technologies), 2 mM Glutamax (Life Technologies), 25 mM HEPES (Life Technologies) and 1× Pen/Strep (Life Technologies). Compounds were serially diluted in DMSO and dispensed acoustically to empty wells. Assay media (phenol red-free DMEM (Life Technologies) supplemented with 10% FBS (ATCC)) was dispensed (4 μL/well) and plates shaken at 900 rpm for 10 mins. Cells were seeded at 45,000 cells/well in assay media (4 μL/well), and incubated at 37° C., 5% CO2 for 1 hour, followed by the addition of IL-2 (R&D Systems; final concentration 300 ng/mL) in pre-warmed assay media (4 μL) for 30 minutes. After cytokine stimulation, cells were lysed with 6 ul of 3× AlphaLisa Lysis Buffer (PerkinElmer) containing 1× PhosStop and Complete tablets (Roche). The lysate was shaken at 900 rpm for 10 minutes at room temperature (RT). Phosphorylated STATS was measured via the pSTAT5 AlphaLisa kit (PerkinElmer). Freshly prepared acceptor bead mixture was dispensed onto lysate (51) under green filtered <100 lux light. Plates were shaken at 900 rpm for 2 mins, briefly spun down, and incubated for 2 hrs at RT in the dark. Donor beads were dispensed (5 μL) under green filtered <100 lux light. Plates were shaken at 900 rpm for 2 minutes, briefly spun down, and incubated overnight at RT in the dark. Luminescence was measured with excitation at 689 nm and emission at 570 nm using an EnVision plate r reader (PerkinElmer) under green filtered <100 lux light.
To determine the inhibitory potency of test compounds in response to IL-2, the average emission intensity of beads bound to pSTAT5 was measured in a human T cell line. IC50 values were determined from analysis of the inhibition curves of signal intensity versus compound concentration. Data are expressed as pIC50 (negative decadic logarithm IC50) values (mean±standard deviation).

[2] = Solubility Assay in Organic Excipients; details: maximum upper limit 20,000 μM; for Solubility in MCT (mg/mL): medium chain triglycerides (MCT)
Method: Assay 6: Solubility Assay in Organic Excipients
The purpose of this assay was to quantify the solubility of test compounds in different organic excipients such as diisopropyl adipate, medium chain triglycerides (MCT), propylene glycol, and polyethylene glycol. The assay required 80 μL of 100 mM DMSO test compound solution per desired excipient in addition to 40 μL required to make a test standard.
The standard was created by diluting 40 μL of 100 mM DMSO compound stock solution into 160 μL of methanol and was shaken for five minutes to ensure solution uniformity. […] This 20,000 μM solution was run on an Agilent 1260 LC-MS system by injecting 0.2 μL in order to obtain the peak area. For the test solutions, 80 μL of 100 mM DMSO compound stock solution, per excipient, were dried down into a powder overnight. Once in powder form, 400 μL of the desired excipient was added to the powder and allowed to shake vigorously for four hours. The maximum theoretical concentration for this sample solution was 20,000 μM. After four hours of shaking, the samples were centrifuged for 10 minutes at 3,000 RPM before injecting 0.2 μL on the same Agilent 1260 LC-MS system to obtain the peak area.

JAK1 = JAK1 (Homo sapiens (Human), UniProt P23458); experiment: Biochemical JAK and Tyk2 Kinase Assays (LanthaScreen), JAK1; details: 25 μM ATP (Km); pIC50 converted to pKi by Cheng-Prusoff
Method: as §1, §2, §3, §4

JAK1, sequence (P23458 whole entry): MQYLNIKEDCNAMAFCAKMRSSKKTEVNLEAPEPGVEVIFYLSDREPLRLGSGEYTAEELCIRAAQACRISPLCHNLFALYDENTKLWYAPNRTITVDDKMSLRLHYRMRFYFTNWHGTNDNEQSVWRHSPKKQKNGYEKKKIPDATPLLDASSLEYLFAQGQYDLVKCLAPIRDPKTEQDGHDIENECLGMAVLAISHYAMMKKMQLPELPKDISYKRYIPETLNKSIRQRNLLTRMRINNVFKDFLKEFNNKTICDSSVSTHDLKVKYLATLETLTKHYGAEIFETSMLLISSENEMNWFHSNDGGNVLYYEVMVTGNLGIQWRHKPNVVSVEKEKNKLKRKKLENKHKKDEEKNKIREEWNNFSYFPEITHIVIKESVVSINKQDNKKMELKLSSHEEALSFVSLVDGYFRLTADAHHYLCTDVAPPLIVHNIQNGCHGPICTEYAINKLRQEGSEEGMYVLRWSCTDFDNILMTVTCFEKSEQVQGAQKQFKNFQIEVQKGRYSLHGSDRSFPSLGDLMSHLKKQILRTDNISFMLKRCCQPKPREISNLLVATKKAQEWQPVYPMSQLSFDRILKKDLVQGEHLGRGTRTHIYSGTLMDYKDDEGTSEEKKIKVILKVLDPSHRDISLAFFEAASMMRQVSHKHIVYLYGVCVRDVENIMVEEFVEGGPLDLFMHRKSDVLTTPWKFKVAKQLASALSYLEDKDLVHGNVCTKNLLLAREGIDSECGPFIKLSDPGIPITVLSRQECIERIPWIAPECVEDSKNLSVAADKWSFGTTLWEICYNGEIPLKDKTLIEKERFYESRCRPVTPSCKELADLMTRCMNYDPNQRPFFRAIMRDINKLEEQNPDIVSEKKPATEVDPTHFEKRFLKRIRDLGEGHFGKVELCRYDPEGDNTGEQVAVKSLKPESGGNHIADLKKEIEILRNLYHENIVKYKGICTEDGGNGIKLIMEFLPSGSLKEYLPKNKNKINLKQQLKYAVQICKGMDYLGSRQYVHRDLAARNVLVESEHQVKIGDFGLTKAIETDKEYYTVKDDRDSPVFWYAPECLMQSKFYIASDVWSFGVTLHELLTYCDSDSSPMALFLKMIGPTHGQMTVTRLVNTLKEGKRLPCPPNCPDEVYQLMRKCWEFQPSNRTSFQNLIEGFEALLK
JAK3, sequence (P52333 whole entry): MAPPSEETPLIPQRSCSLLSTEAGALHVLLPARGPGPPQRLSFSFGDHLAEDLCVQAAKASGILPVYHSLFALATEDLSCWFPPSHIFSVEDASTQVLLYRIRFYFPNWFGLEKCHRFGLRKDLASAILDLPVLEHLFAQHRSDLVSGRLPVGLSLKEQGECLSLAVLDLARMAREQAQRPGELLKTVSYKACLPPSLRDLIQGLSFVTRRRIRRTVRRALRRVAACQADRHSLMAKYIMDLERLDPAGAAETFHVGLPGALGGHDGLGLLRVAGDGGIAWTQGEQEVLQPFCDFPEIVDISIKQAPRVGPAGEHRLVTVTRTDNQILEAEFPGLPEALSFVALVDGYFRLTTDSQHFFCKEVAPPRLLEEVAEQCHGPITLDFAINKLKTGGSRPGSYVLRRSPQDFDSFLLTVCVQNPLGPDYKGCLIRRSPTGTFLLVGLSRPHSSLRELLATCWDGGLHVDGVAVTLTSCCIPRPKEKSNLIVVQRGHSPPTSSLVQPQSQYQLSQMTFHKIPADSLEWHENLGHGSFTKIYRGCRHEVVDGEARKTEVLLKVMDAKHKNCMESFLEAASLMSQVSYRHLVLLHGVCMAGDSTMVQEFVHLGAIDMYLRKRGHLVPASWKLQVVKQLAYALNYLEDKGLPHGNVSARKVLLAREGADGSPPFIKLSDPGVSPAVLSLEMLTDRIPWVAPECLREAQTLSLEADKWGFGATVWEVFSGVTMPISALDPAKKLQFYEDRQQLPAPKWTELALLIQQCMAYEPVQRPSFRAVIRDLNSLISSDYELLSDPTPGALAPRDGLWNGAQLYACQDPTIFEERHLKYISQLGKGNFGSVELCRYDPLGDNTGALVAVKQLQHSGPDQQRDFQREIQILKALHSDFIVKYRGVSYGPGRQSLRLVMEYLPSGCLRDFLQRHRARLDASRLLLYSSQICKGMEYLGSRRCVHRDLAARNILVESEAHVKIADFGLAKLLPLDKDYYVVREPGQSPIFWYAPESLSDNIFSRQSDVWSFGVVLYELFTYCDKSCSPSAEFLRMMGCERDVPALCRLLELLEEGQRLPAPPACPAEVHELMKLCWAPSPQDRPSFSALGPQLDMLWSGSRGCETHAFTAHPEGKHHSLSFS

Structure (SMILES)	Solubility at PH 7.4 (μmol) (Aqueous Solubility Assay)	JAK 3 (pKi) (JAK3)	Tall-1 IL2 pSTAT5 (pIC50) [1]	Solubility in PEG400 (mg/mL) [2]	Solubility in Diisopropyl adipate (mg/mL) [2]	Solubility in MCT (mg/mL) [2]	Solubility in Propylene glycol (mg/mL) [2]	JAK 1 (pKi) (JAK1)
CCS(=O)(=O)N1[C@@H]2CCC[C@H]1C[C@H](N(C)c1nc(Nc3cc(C)[nH]n3)cc(OC3COC3)n1)C2 [Compound 34, N^2-((1R,3s,5S)-9-(ethylsulfonyl)-9-azabicyclo[3.3.1]nonan-3-yl)-N2-methyl-N4-(5-methyl-1H-pyrazol-3-yl)-6-(oxetan-3-yloxy)pyrimidine-2,4-diamine]	E (E represents a value below 10)	B (B represents a pKi value between 9 and 10 (Ki between 1 nM and 0.1 nM))	A (A represents a pIC50 value ≥8.0)	C (C represents a value below 5)	C (C represents a value below 5)	C (C represents a value below 5)	C (C represents a value below 5)	A (A represents a pKi value ≥10 (Ki≤0.1 nM))
COC(=O)N1[C@@H]2CCC[C@H]1C[C@H](N(C)c1nc(Nc3cc(C)[nH]n3)cc(C3CCOC3)n1)C2 (stereo partly drawn) [Compound 6, Methyl (1R,3s,5S)-3-(methyl(4-((5-methyl-1H-pyrazol-3-yl)amino)-6-(tetrahydrofuran-3-yl)pyrimidin-2-yl)amino)-9-azabicyclo[3.3.1]nonane-9-carboxylate]	D (D represents a value between 10 and 50)	C (C represents a pKi value between 8 and 9 (Ki between 10 nM and 1 nM))	A (A represents a pIC50 value ≥8.0)	C (C represents a value below 5)	C (C represents a value below 5)	C (C represents a value below 5)	C (C represents a value below 5)	A (A represents a pKi value ≥10 (Ki≤0.1 nM))
COC(=O)N1[C@@H]2CCC[C@H]1C[C@H](N(C)c1nc(Nc3cc(C)[nH]n3)cc(C3CCOCC3)n1)C2 [Compound 3, methyl (1R,3s,5S)-3-(methyl(4-((5-methyl-1H-pyrazol-3-yl)amino)-6-(tetrahydro-2H-pyran-4-yl)pyrimidin-2-yl)amino)-9-azabicyclo[3.3.1]nonane-9-carboxylate]	E (E represents a value below 10)	B (B represents a pKi value between 9 and 10 (Ki between 1 nM and 0.1 nM))	A (A represents a pIC50 value ≥8.0)	C (C represents a value below 5)	C (C represents a value below 5)	C (C represents a value below 5)	C (C represents a value below 5)	B (B represents a pKi value between 9 and 10 (Ki between 1 nM and 0.1 nM))
CCS(=O)(=O)N1[C@@H]2CCC[C@H]1C[C@H](N(C)c1nc(Nc3cc(C)[nH]n3)cc(C3CCOC(C)(C)C3)n1)C2 (stereo partly drawn) [Compound 2, 6-(2,2-dimethyltetrahydro-2H-pyran-4-yl)-N2-((1R,3s,5S)-9-(ethylsulfonyl)-9-azabicyclo[3.3.1]nonan-3-yl)-N2-methyl-N4-(5-methyl-1H-pyrazol-3-yl)pyrimidine-2,4-diamine]	C (C represents a value between 50 and 250)	B (B represents a pKi value between 9 and 10 (Ki between 1 nM and 0.1 nM))	A (A represents a pIC50 value ≥8.0)	C (C represents a value below 5)	C (C represents a value below 5)	C (C represents a value below 5)	C (C represents a value below 5)	B (B represents a pKi value between 9 and 10 (Ki between 1 nM and 0.1 nM))
CCC(=O)N1[C@@H]2CCC[C@H]1C[C@H](N(C)c1nc(Nc3cc(C)[nH]n3)cc(O[C@@H]3CCOC3)n1)C2 [Compound 17, 1-((1R,3s,5S)-3-(methyl(4-((5-methyl-1H-pyrazol-3-yl)amino)-6-(((R)-tetrahydrofuran-3-yl)oxy)pyrimidin-2-yl)amino)-9-azabicyclo[3.3.1]nonan-9-yl)propan-1-one]	D (D represents a value between 10 and 50)	C (C represents a pKi value between 8 and 9 (Ki between 10 nM and 1 nM))	A (A represents a pIC50 value ≥8.0)	B (B represents a value between 5 and 10)	A (A represents a value above 10)	C (C represents a value below 5)	A (A represents a value above 10)	B (B represents a pKi value between 9 and 10 (Ki between 1 nM and 0.1 nM))
